In patent US8993626B2, “Methods of treatment using sterculic acid” (The United States of America, as represented by the …, priority 2010, dated 2015):

Legend:
[1] = test system: Non-Small Cell Lung Cancer, NCI-H226; assay: NCI in vitro anti-cancer cell line screen (SRB); conditions: Homo sapiens, NCI-H226, 48 h
Protocol: (§1) The human tumor cell lines used in the cancer screen panel were grown in RPMI 1640 medium containing 5% FBS and 2 mM L-glutamine. The cells were inoculated into 96-well microtiter plates in 100 μl at plating density ranging from 5000 to 40,000 cell/well. […] Following drug addition, the plates were incubated for an additional 48 h. The assay was terminated by the addition of cold 10% TCA. The supernatant was discarded, and the plates were washed five times with water and air dried. Sulforhodamine B (SRB) solution (100 μl) at 0.4% (w/v) in 1% acetic acid was added to each well, and plates were incubated for 10 min at room temperature. After staining, unbound dye was removed by washing five times with 1% acetic acid and the plates were air dried. Bound stain was subsequently solubilized with 10 mM trizma base, and the absorbance was read on an automated plate reader at a wavelength of 515 nm.
(§2) A sulforhodamine B (SRB) end point was used to calculate the median growth inhibition (GI50). GI50 refers to the concentration at which the drug inhibits tumor cell growth by 50%.

[2] = test system: stearoyl-CoA desaturase (SCD); assay: SCD mRNA expression (qRT-PCR); assay type: cell-based
Protocol: FIGS. 18A and 18B depict (A) Dose response of SCD mRNA inductions by 0-12 μM 7KCh after 24 hr treatments. (B) The mRNA expressions of SCD in response to 8 μM 7KCh, 1 μM sterculic acid, 1 μM stearic acid, or the combinations of 7KCh with either sterculic acid or stearic acid. Error bars indicate the standard deviations. n=4.
The RNA was extracted using RNeasy Mini Kit (Qiagen, Valencia, Calif.). The reverse transcription was performed with reagents and kits from Invitrogen. Quantification of mRNA expression was performed using the Taqman gene expression assays and the following primers (VEGFa, Hs00173626_m1; IL-1β, Hs01555413_m1; IL-6, Hs00174131_m1; IL-8, Hs00174103_m1; IκBα, Hs00153283_m1; GRP78, Hs99999174_m1; CHOP, Hs01090850_m1; NOX2, Hs00166163_m1; NOX4, Hs01558199_m1; SCD, Hs00748952 s1; TNF-α, Hs00174128_m1; TGF-β1, Hs00998133_m1; GAPD, 4352934e). GAPD expression was used as an endogenous standard. All qRT-PCR experiments were measured in triplicates in an ABI 7500 Real-Time PCR Instrument (Applied Biosystems, Foster City, Calif.). The results of each treatment were normalized and presented in percentage relative to the vehicle-only control.
To determine the effect of 7KCh on SCD expression ARPE-19 cells were incubated with 4 μM 7KCh for 24 hr. 7KCh suppressed SCD mRNA expression by approximately 60-70% (FIG. 18A). […] Treatment of the cells with 8 μM 7KCh and 1 μM sterculic acid further suppress SCD expression to 86% (FIG. 18B). […] This is the only instance where 7KCh and sterculic acid worked synergistically rather than antagonistically.

[3] = test system: ARPE-19 cells; assay: Fatty acids against 7KCh-mediated cell death (CCK8); assay type: cell-based
Protocol: FIGS. 12A-12C depict ARPE-19 cell viability in response to 12 μM 7KCh with or without 0.1-5 μM (A) sterculic acid and (B) stearic acid after 24 hr treatments. Error bars indicate the standard deviations. n=3-5. Two-tailed Student's t-test. (C) Representative images of changes in cell morphology in response to 12 μM 7KCh with or without 1 μM sterculic acid and stearic acid after 24 hr treatments.
ARPE-19 cells were seeded in 24-well plates with 1×10^5 cells per well and allowed to recover for 16-24 hr. Once confluency reached approximately 90%, the effect of the fatty acids against 7KCh-mediated cell death was examined 24 hr after incubation in serum-free medium with 12 μM 7KCh. Fatty acids were tested at 0.1, 0.5, 1, 5 and 10 μM concentrations. The effects of the fatty acids against 7KCh-mediated inflammation and ER stress were examined by incubating cells in 1 μM fatty acids with either 8 μM 7KCh (24 hr for quantitative real-time PCR (qRT-PCR), 24 and 48 hr for immunoblot), or 6 μM 7KCh for 48 hr (for ELISA). Three individual experiments were performed for each treatment with quadruplicate measurements performed for each experiment in 24-well plates.
The cell viability was determined by the dehydrogenase activity of the ARPE-19 cells using Cell Counting Kit-8 (CCK8, Dojindo, Gaithersburg, Md.) according to manufacturer's protocol.
The lowest effective concentrations of fatty acids that offset the 7KCh-mediated cell death were determined. […] Table 3 lists the lowest concentrations of these fatty acids required to maintain full cell viability against 12 μM 7KCh treatment. All unsaturated fatty acids protected against 7KCh-induced cell death. […] DHA, α-linolenic, and linoleic acid prevented 7KCh-mediated cell death at 5 μM but the rest of unsaturated fatty acids and dihydrosterculic acid required 10 μM to be protective.

[4] = test system: Renal Cancer, RXF-393; assay: NCI in vitro anti-cancer cell line screen (SRB); conditions: Homo sapiens, RXF 393, 48 h
Protocol: as §1, §2

[5] = test system: Melanoma, UACC-62; assay: NCI in vitro anti-cancer cell line screen (SRB); conditions: Homo sapiens, UACC-62, 48 h
Protocol: as §1, §2

[6] = test system: Human retinal pigment epithelial (RPE) cells (ARPE-19); assay: Microarray-based gene expression analysis of sterculic acid treated RPE cells; assay type: cell-based; conditions: 10 μM sterculic acid, 72 h
Protocol: Human retinal pigment epithelial (RPE) cells (ARPE-19) obtained from ATCC (Manassas, Va.) were grown in Dulbecco's Modified Eagle's Medium (DMEM) containing nutrient mixture F12 (Cellgro, Va.) supplemented with 5% fetal bovine serum, penicillin (100 U/ml) and streptomycin (100 μg/ml). Cells were seeded at a density of 2×10^5 cells/ml in complete medium and allowed to grow overnight. The culture medium was replaced next day with fresh medium before treating with 10 μM of sterculic acid dissolved in DMSO. The controls received the same amount of DMSO. After 72 h, total RNA, 100 ng, was amplified according to Affymetrix's small sample protocol, and 20 μg of cRNA was then hybridized on each NEI GeneChip microarray. After hybridization, GeneChip array was washed, stained with streptavidin-PE (Molecular Probes), amplified with biotinylated anti-streptavidin antibody and scanned with an argon ion Confocal Laser at 570 nm (Affymetrix). Affymetrix GeneChip Operating software was used for absolute expression and to normalize the gene expression levels between any two samples. Data were then incorporated into GeneSpring software 7.2 ([…]) for chip normalization, filtering and cluster analysis.

[7] = test system: Leukemia, HL-60 (TB); assay: NCI in vitro anti-cancer cell line screen (SRB); assay type: cell-based; conditions: Homo sapiens, 48 h
[8] = test system: Colon Cancer, HCC-2998; assay: NCI in vitro anti-cancer cell line screen (SRB); conditions: Homo sapiens, HCC 2998, 48 h
Protocol: as §1, §2

For `CCCCCCCCC1=C(CCCCCCCC(=O)O)C1` [sterculic acid, 8-(2-octacyclopropen-1-yl)octanoic acid], the GI50 [1] was 10 µM, the “inhibition of SCD expression” value ([2]; 1 μM sterculic acid alone) was “similarly to 8 μM 7KCh” and the “suppression of SCD expression” value ([2]; 8 μM 7KCh and 1 μM sterculic acid) was 86%. The “cell viability at 0.5 μM” value ([3]; 0.5 μM + 12 μM 7KCh, 24 hr) was “significantly increased cell viability”, the “morphological effects on the cells (images)” value ([3]; 1 μM + 12 μM 7KCh, 24 hr, FIG. 12C) was “effectively protect” and the “CONC. (μM): lowest concentration required to maintain full cell viability against 7KCh” value ([3]; 12 μM 7KCh for 24 hr, tested 0.1, 0.5, 1, 5 and 10 μM) was 1 µM. The “protective effect against 7KCh-mediated cell death” value ([3]; 12 μM 7KCh, 24 hr, 0.1-10 μM fatty acid) was “by far the most effective compound”, the GI50 [4] was 10 µM and the GI50 [5] was 1 µM. The “Fold Change, ALDH3A1, down-regulated” value [6] was 7 fold, the “Fold Change, ALDH7A1, up-regulated” value [6] was 15 fold and the “Fold Change, ATF4, down-regulated” value [6] was 7 fold. The “Fold Change, BMP7, up-regulated” value [6] was 6 fold, the “Fold Change, CRABP1, down-regulated” value [6] was 8 fold and the “Fold Change, CTSC, up-regulated” value [6] was 9 fold. For the same molecule, the “Fold Change, FNTA, up-regulated” value [6] was 4 fold, the “Fold Change, GADD45B, down-regulated” value [6] was 7 fold and the “Fold Change, GOT2, up-regulated” value [6] was 5 fold. The “Fold Change, HSPCA, up-regulated” value [6] was 11 fold, the “Fold Change, HYOU1, down-regulated” value [6] was 10 fold and the “Fold Change, IGFBP3, down-regulated” value [6] was 3 fold. For the same molecule, the “Fold Change, MMP2, down-regulated” value [6] was 7 fold, the “Fold Change, MT1H, down-regulated” value [6] was 8 fold and the “Fold Change, PALLD, up-regulated” value [6] was 5 fold. The “Fold Change, SCEL, up-regulated” value [6] was 5 fold, the “Fold Change, SOD1, up-regulated” value [6] was 5 fold and the “Fold Change, SUOX, up-regulated” value [6] was 3 fold. For the same molecule, the “Fold Change, VBP1, up-regulated” value [6] was 5 fold, the GI50 [7] was 10 µM and the GI50 [8] was 10 µM.
